Among the data in BindingDB's records for doi:10.1021/jm0002782 (Abbott Laboratories, 2000) are IC50 values, retold here.

The nature of one assay: Evaluated for its ability to block the adherence of JY-8 cells to immobilized ICAM-1.
Broadly, the IC50 is the concentration at which inhibition is half-maximal. A higher IC50 goes with weaker potency. `O=C(/C=C/c1ccc(Sc2ccccc2CN2CCN(Cc3ccc4c(c3)OCO4)CC2)c(Cl)c1)N1CCOCC1` [3-{4-[2-(4-Benzo[1,3]dioxol-5-ylmethyl-piperazin-1-ylmethyl)-phenylsulfanyl]-3-chloro-phenyl}-1-morpholin-4-yl-propenone] displayed an IC50 of 360 nM. Same read-out and setting: in the case of `O=C(/C=C/c1ccccc1Sc1ccc(Cl)cc1Cl)N1CCOCC1` [3-[2-(2,4-Dichloro-phenylsulfanyl)-phenyl]-1-morpholin-4-yl-propenone] it was 5300 nM; in that of `CC(=O)N1CCN(C(=O)/C=C/c2ccc(Sc3ccc(Cl)cc3Cl)c([N+](=O)[O-])c2)CC1` [1-(4-Acetyl-piperazin-1-yl)-3-[4-(2,4-dichloro-phenylsulfanyl)-3-nitro-phenyl]-propenone], 63 nM; in that of `O=C(/C=C/c1ccccc1Sc1ccc(Cl)cc1Cl)NCCCCCCO` [3-[2-(2,4-Dichloro-phenylsulfanyl)-phenyl]-N-(6-hydroxy-hexyl)-acrylamide], 2100 nM. The same measure, in the same setting: in the case of `O=C(/C=C/c1ccc(Sc2ccc(Cl)cc2Cl)c([N+](=O)[O-])c1)NCCCN1CCCC1=O` [3-[4-(2,4-Dichloro-phenylsulfanyl)-3-nitro-phenyl]-N-[3-(2-oxo-pyrrolidin-1-yl)-propyl]-acrylamide] it was 140 nM; in that of `O=C(/C=C/c1ccc(Sc2ccccc2/C=C/C(=O)N2CCOCC2)c(Cl)c1)N1CCOCC1` [3-{3-Chloro-4-[2-(3-morpholin-4-yl-3-oxo-propenyl)-phenylsulfanyl]-phenyl}-1-morpholin-4-yl-propenone], 190 nM; in that of `CC(=O)N1CCN(C(=O)/C=C/c2ccc(Sc3ccc(Cl)cc3Cl)c(Cl)c2)CC1` [1-(4-Acetyl-piperazin-1-yl)-3-[3-chloro-4-(2,4-dichloro-phenylsulfanyl)-phenyl]-propenone], 240 nM. In the case of `CCc1ccccc1Sc1ccc(/C=C/C(=O)N2CCN(C(C)=O)CC2)cc1[N+](=O)[O-]` [1-(4-Acetyl-piperazin-1-yl)-3-[4-(2-ethyl-phenylsulfanyl)-3-nitro-phenyl]-propenone], the IC50 was 100 nM.

Assay in the next assay: as above
The source holds these as a separate data set.
`O=C(/C=C/c1ccc(Sc2ccc(Cl)cc2Cl)c(Cl)c1)NCCCN1CCCC1=O` [3-[3-Chloro-4-(2,4-dichloro-phenylsulfanyl)-phenyl]-N-[3-(2-oxo-pyrrolidin-1-yl)-propyl]-acrylamide] gave an IC50 of 700 nM.
